In general, IC50 refers to the concentration needed to halve the response being measured. What is called EC50 is the concentration needed to bring the measured effect to its halfway point. Lower therefore signals greater potency.

The values below come from patent US5958952A, “Substituted phenylamindines, medicaments containing these compounds and process for producing them” (Dr. Karl Thomae GmbH, priority 1995, dated 1999).

The target of one experiment is human thrombocytes. Description: Inhibiting the binding of ^3 H-BIBU 52 to human thrombocytes. The following applies: human thrombocytes in plasma; ^3 H-BIBU 52 final concentration 5 nM; ambient temperature, 20 minutes; read-out: ^3 H-BIBU-52-binding test IC50. The method, then:
1. Inhibiting the Binding of ^3 H-BIBU 52 to Human Thrombocytes:
A suspension of human thrombocytes in plasma is incubated with ^3 H-BIBU 52 [=(3S,5S)-5-[(4'-amidino-4-biphenylyl)oxymethyl]-3-[(carboxy)methyl]-2-pyrrolidinone[3-^3 H-4-biphenylyl]], replacing the ligand ^125 I-fibrinogen known from the literature, (cf. DE-A-4,214.245) and various concentrations of the substance to be tested. The free and bound ligand is separated off by centrifuging and quantitatively determined by scintillation counting. From the results obtained, the inhibition of ^3 H-BIBU 52 binding by the test substance is determined.
In order to do this, donor blood is taken from an anticubital vein and anticoagulated with trisodium citrate (final concentration 13 mM). The blood is centrifuged for 10 minutes at 170×g and the supernatant platelet-rich plasma (PRP) is removed. The residual blood is sharply centrifuged off once more in order to obtain plasma. The PRP is diluted 1:10 with autologous plasma. 750 μl are incubated with 50 μl of physiological saline, 100 μl of test substance solution, 50 μl of ^14 C sucrose (3.700 Bq) and 50 μl of ^3 H-BIBU 52 (final concentration: 5 nM) at ambient temperature for 20 minutes. […] 100 μl of it are measured in order to determine the free ligand. The pellet is dissolved in 500 μl of 0.2N NaOH, 450 μl are mixed with 2 ml of scintillator and 25 μl of 5N HCl and measured. […]

The test system of another experiment is thrombocyte aggregation. Description: Antithrombotic activity: inhibition of collagen-induced platelet (thrombocyte) aggregation in platelet-rich plasma. Type of experiment: cell-based. The following applies: Homo sapiens, 10 min, platelet-rich plasma from healthy test subjects, incubated with substance at 37° C. for 10 minutes, 50% change in optical density. On the procedure: 2. Antithrombotic Activity:
The thrombocyte aggregation is measured by the Born and Cross method (J. Physiol. 170, 397 (1964)) in platelet-rich plasma from healthy test subjects. To inhibit clotting, the blood is mixed with 3.14% sodium citrate in a ratio by volume of 1:10.
Collagen-Induced Aggregation
The progress of the decrease in optical density of the platelet suspension is measured photometrically after the addition of the aggregation-triggering substance and recorded. The rate of aggregation is calculated from the angle of inclination of the density curve. The point on the curve at which there is greatest light permeability is used to calculate the optical density.
The quantity of collagen is selected to be as small as possible but still sufficient to produce an irreversible reaction curve. The standard commercial collagen made by Hormonchemie of Munich is used.
Before the collagen is added, the plasma is incubated with the substance at 37° C. for 10 minutes.
From the measurements obtained, an EC50 was determined graphically corresponding to a 50% change in the optical density in terms of inhibiting aggregation.

For `N=C(N)c1ccc(NC(=O)CCC2CCN(CC(=O)O)CC2)cc1` [Example 1, 4-[2-[(4-amidinophenyl)aminocarbonyl]ethyl]-1-carboxymethyl-piperidine], on human thrombocytes, the IC50 was determined as 3.7 nM. A half-maximal effect with thrombocyte aggregation (EC50) was put at 37 nM.

As for `N=C(N)c1ccc(NC(=O)CCN2CCC(CC(=O)O)CC2)cc1` [1(1), 1-[2-[(4-amidinophenyl)aminocarbonyl]ethyl]-4-carboxymethyl-piperidine], the half-inhibitory concentration (IC50) at human thrombocytes was determined as 51 nM. The EC50 in the experiment with thrombocyte aggregation was determined as 310 nM.
